US7211572B2 (Japan Tobacco Inc., priority 2003, dated 2007)
Counter-ions that a name gives are not always drawn.

Biological target: T1, HIV integrase (Human immunodeficiency virus type 1 group M subtype B, UniProt P12497, F1332H)
T1 construct: HIV integrase full length gene; made in house; host or cells: Escherichia coli BL21(DE3), plasmid pET21a-INH
Assay: Determination of enzyme (HIV integrase) inhibitory activity
Assay type: biochemical
Details: recombinant HIV integrase (F185H), strand transfer ELISA, absorbance at 450 nm
Source text: The following explains evaluation methods of the HIV integrase inhibitory activity of the compound of the present invention.
(i) Construction of Recombinant Integrase Gene Expression System
The 185th phenylalanine of HIV integrase full length gene (J. Virol., 67, 425–437 (1993)) was substituted by histidine and inserted into the restriction enzyme NdeI and XhoI sites of plasmid pET21a(+) (Novagen), whereby an integrase expression vector pET21a-INH was constructed.
(ii) Production and Purification of Integrase Protein
Escherichia coli recombinant BL21(DE3) transformed with plasmid pET21a-INH obtained in (i) was shake cultured at 37° C. in a liquid medium containing ampicillin. When the culture reached the logarithmic growth phase, isopropyl-β-D-thiogalactopyranoside was added to promote expression of integrase gene. The culture was continued for 3 hr to promote accumulation of the integrase protein. The recombinant E. coli was collected in pellets by centrifugal separation and preserved at −80° C.
The E. coli was suspended in Lysis buffer (20 mM HEPES (pH 7.5), 5 mM DTT, 10 mM CHAPS, 10% glycerol) containing 1M sodium chloride and subjected to repeat pressurization and depressurization for rupture, and centrifugal separation at 4° C., 40,000×g, 60 min to recover a water-soluble fraction (supernatant). This was diluted 10-fold with Lysis buffer free of sodium chloride, mixed with SP-Sepharose (Pharmacia Corporation) and stirred at 4° C. for 30 min to allow adsorption of integrase protein to the resin. The resin was washed with Lysis buffer containing 100 mM sodium chloride and the integrase protein was eluted with Lysis buffer containing 1M sodium chloride.
The eluted integrase protein solution was applied to a Superdex 75 (Pharmacia Corporation) column for gel filtration. The protein was eluted with Lysis buffer containing 1M sodium chloride.
The obtained fractions of the integrase protein were collected and preserved at −80° C.
(iii) Preparation of DNA Solution
The following DNA synthesized by Greiner was dissolved in TE buffer (10 mM Tris-hydrochloric acid (pH 8.0), 1 mM EDTA) and mixed with donor DNA, target DNA, and each complementary strand (+ and − strands) to 1 μM. The mixture was heated at 95° C. for 5 min, 80° C. for 10 min, 70° C. for 10 min, 60° C. for 10 min, 50° C. for 10 min and 40° C. for 10 min and preserved at 25° C. to give a double stranded DNA, which was used for the test.
Donor DNA (− strand having biotin attached to the 5′ terminal)
(iv) Determination of Enzyme (HIV Integrase) Inhibitory Activity
The donor DNA was diluted with TE buffer to 10 nM, of which 50 μl was added to each well of streptavidin-coated microtiter plate (Roche) and allowed to adsorb at 37° C. for 60 min. The DNA was washed with phosphate buffer (Dulbecco PBS, Sanko Junyaku Co., Ltd.) containing 0.1% Tween 20 and phosphate buffer. Then, a reaction mixture (70 μl) having the following composition, a test substance (10 μl) diluted with the reaction mixture and 100 μg/ml integrase protein (10 μl) were added to each well and reacted at 37° C. for 60 min.
Composition of the reaction mixture: 30 mM MOPS (3-morpholinopropanesulfonic acid), 5 mM magnesium chloride, 3 mM DTT (dithiothreitol), 0.1 mg/ml BSA (bovine serum albumin), 5% glycerol, 10% DMSO (dimethyl sulfoxide), 0.01% Tween 20.
Then, 50 nM target DNA (10 μl) was added, reacted at 37° C. for 10 min and washed with phosphate buffer containing 0.1% Tween 20 to stop the reaction.
Then, 100 mU/ml peroxidase labeled anti-digoxigenin antibody solution (Roche, 100 μl) was added, and the mixture was reacted at 30° C. for 60 min, followed by washing with phosphate buffer containing 0.1% Tween 20.
A peroxidase color solution (Bio Rad, 100 μl) was added and allowed to react at room temperature for 4 min. The color reaction was stopped by adding 1N sulfuric acid (100 μl). The absorbance at 450 nm was measured. […]

## CCN(CC)C(=O)c1cc(=O)c(O)c2n1CCN(Cc1ccc(Cl)c(Cl)c1)C2=O [Example 61, N,N-diethyl-2-(3,4-dichlorobenzyl)-9-hydroxy-1,8-dioxo-1,3,4,8-tetrahydro-2H-pyrido[1,2-a]pyrazine-6-carboxamide]
  IC50: 10 to 100 nM

## CC(C)N(C)C(=O)c1cc(=O)c(O)c2n1CCN(Cc1ccc(Cl)c(Cl)c1)C2=O [Example 62, N-isopropyl-N-methyl-2-(3,4-dichlorobenzyl)-9-hydroxy-1,8-dioxo-1,3,4,8-tetrahydro-2H-pyrido[1,2-a]pyrazine-6-carboxamide]
  IC50: 10 to 100 nM

## CCN(C)C(=O)c1cc(=O)c(O)c2n1CCN(Cc1ccc(Cl)c(Cl)c1)C2=O [Example 63, N-ethyl-N-methyl-2-(3,4-dichlorobenzyl)-9-hydroxy-1,8-dioxo-1,3,4,8-tetrahydro-2H-pyrido[1,2-a]pyrazine-6-carboxamide]
  IC50: < 10 nM

## O=C1c2c(O)c(=O)ccn2CCN1Cc1ccc(F)c(Cl)c1 [Example 64, 2-(3-chloro-4-fluorobenzyl)-9-hydroxy-3,4-dihydro-2H-pyrido[1,2-a]pyrazine-1,8-dione]
  IC50: 10 to 100 nM

## O=C1c2c(O)c(=O)ccn2CCN1Cc1ccccc1Cl [Example 65, 2-(2-chlorobenzyl)-9-hydroxy-3,4-dihydro-2H-pyrido[1,2-a]pyrazine-1,8-dione]
  IC50: 100 to 1000 nM

## O=C1c2c(O)c(=O)ccn2CCN1Cc1cc(Cl)cc(Cl)c1 [Example 66, 2-(3,5-dichlorobenzyl)-9-hydroxy-3,4-dihydro-2H-pyrido[1,2-a]pyrazine-1,8-dione]
  IC50: 10 to 100 nM

## CC(C)(C)c1cc(=O)c(O)c2n1CCN(Cc1ccc(Cl)c(Cl)c1)C2=O [Example 67, 6-tert-butyl-2-(3,4-dichlorobenzyl)-9-hydroxy-3,4-dihydro-2H-pyrido[1,2-a]pyrazine-1,8-dione]
  IC50: 10 to 100 nM

## CC(C)(C)C(O)c1cc(=O)c(O)c2n1CCN(Cc1ccc(Cl)c(Cl)c1)C2=O (stereo not drawn) [Example 68, 2-(3,4-dichlorobenzyl)-9-hydroxy-6-(1-hydroxy-2,2-dimethylpropyl)-3,4-dihydro-2H-pyrido[1,2-a]pyrazine-1,8-dione]
  IC50: 10 to 100 nM

## O=c1ccn2ccn(CCCc3ccc(Cl)cc3)c(=O)c2c1O [Example 70, 2-[3-(4-chlorophenyl)propyl]-9-hydroxy-2H-pyrido[1,2-a]pyrazine-1,8-dione]
  IC50: 10 to 100 nM

## O=c1ccn2ccn(CCCc3ccccc3Cl)c(=O)c2c1O [Example 71, 2-[3-(2-chlorophenyl)propyl]-9-hydroxy-2H-pyrido[1,2-a]pyrazine-1,8-dione]
  IC50: 10 to 100 nM

## Cc1cn(Cc2ccc(Cl)c(Cl)c2)c(=O)c2c(O)c(=O)ccn12 [Example 72, 2-(3,4-dichlorobenzyl)-9-hydroxy-4-methyl-2H-pyrido[1,2-a]pyrazine-1,8-dione hydrochloride]
  IC50: < 10 nM

## COc1ccc(CN2CCn3ccc(=O)c(O)c3C2=O)cc1Cl [Example 73, 2-(3-chloro-4-methoxybenzyl)-9-hydroxy-3,4-dihydro-2H-pyrido[1,2-a]pyrazine-1,8-dione]
  IC50: 10 to 100 nM

## N#CCc1cc(=O)c(O)c2n1CCN(Cc1ccc(Cl)c(Cl)c1)C2=O [Example 75, [2-(3,4-dichlorobenzyl)-9-hydroxy-1,8-dioxo-1,3,4,8-tetrahydro-2H-pyrido[1,2-a]pyrazin-6-yl]acetonitrile]
  IC50: 10 to 100 nM

## O=c1ccn2ccn(CCCc3cccc(Cl)c3)c(=O)c2c1O [Example 76, 2-[3-(3-chlorophenyl)propyl]-9-hydroxy-2H-pyrido[1,2-a]pyrazine-1,8-dione]
  IC50: 10 to 100 nM

## CC(C)c1cn(Cc2ccc(Cl)c(Cl)c2)c(=O)c2c(O)c(=O)ccn12 [Example 78, 2-(3,4-dichlorobenzyl)-9-hydroxy-4-isopropyl-2H-pyrido[1,2-a]pyrazine-1,8-dione]
  IC50: < 10 nM

## O=c1ccn2ccn(CCCc3ccc(Cl)c(Cl)c3)c(=O)c2c1O [Example 79, 2-[3-(3,4-dichlorophenyl)propyl]-9-hydroxy-2H-pyrido[1,2-a]pyrazine-1,8-dione]
  IC50: 10 to 100 nM

## O=c1ccn2ccn(CCCc3cc(Cl)cc(Cl)c3)c(=O)c2c1O [Example 80, 2-[3-(3,5-dichlorophenyl)propyl]-9-hydroxy-2H-pyrido[1,2-a]pyrazine-1,8-dione]
  IC50: 10 to 100 nM

## O=C(Cc1cc(=O)c(O)c2n1CCN(Cc1ccc(Cl)c(Cl)c1)C2=O)OCc1ccccc1 [Example 81]
  IC50: < 10 nM

## O=C(OCc1ccccc1)C(Cc1ccccc1)c1cc(=O)c(O)c2n1CCN(Cc1ccc(Cl)c(Cl)c1)C2=O (stereo not drawn) [Example 82, benzyl 2-[2-(3,4-dichlorobenzyl)-9-hydroxy-1,8-dioxo-1,3,4,8-tetrahydro-2H-pyrido[1,2-a]pyrazin-6-yl]-3-phenylpropionate]
  IC50: 10 to 100 nM

## O=C1c2c(O)c(=O)cc(CCO)n2CCN1Cc1ccc(Cl)c(Cl)c1 [Example 83, 2-(3,4-dichlorobenzyl)-9-hydroxy-6-(2-hydroxyethyl)-3,4-dihydro-2H-pyrido[1,2-a]pyrazine-1,8-dione]
  IC50: 10 to 100 nM

## CCCc1cn(Cc2ccc(Cl)c(Cl)c2)c(=O)c2c(O)c(=O)ccn12 [Example 84, 2-(3,4-dichlorobenzyl)-9-hydroxy-4-propyl-2H-pyrido[1,2-a]pyrazine-1,8-dione]
  IC50: < 10 nM

## CCc1cn(Cc2ccc(Cl)c(Cl)c2)c(=O)c2c(O)c(=O)ccn12 [Example 85, 2-(3,4-dichlorobenzyl)-4-ethyl-9-hydroxy-2H-pyrido[1,2-a]pyrazine-1,8-dione]
  IC50: 10 to 100 nM

## O=c1ccn2c(CO)cn(Cc3ccc(Cl)c(Cl)c3)c(=O)c2c1O [Example 86, 2-(3,4-dichlorobenzyl)-9-hydroxy-4-hydroxymethyl-2H-pyrido[1,2-a]pyrazine-1,8-dione]
  IC50: < 10 nM

## CC(C)Cc1cn(Cc2ccc(Cl)c(Cl)c2)c(=O)c2c(O)c(=O)ccn12 [Example 87, 2-(3,4-dichlorobenzyl)-9-hydroxy-4-isobutyl-2H-pyrido[1,2-a]pyrazine-1,8-dione]
  IC50: < 10 nM

## O=c1ccn2ccn(Cc3cccc(Cl)c3)c(=O)c2c1O [Example 88, 2-(3-chlorobenzyl)-9-hydroxy-2H-pyrido[1,2-a]pyrazine-1,8-dione hydrochloride]
  IC50: 10 to 100 nM

## COC(=O)c1cn(Cc2ccc(Cl)c(Cl)c2)c(=O)c2c(O)c(=O)ccn12 [Example 89, methyl 2-(3,4-dichlorobenzyl)-9-hydroxy-1,8-dioxo-1,8-dihydro-2H-pyrido[1,2-a]pyrazine-4-carboxylate]
  IC50: 10 to 100 nM

## O=c1ccn2ccn(Cc3ccc(F)c(Cl)c3)c(=O)c2c1O [Example 90, 2-(3-chloro-4-fluorobenzyl)-9-hydroxy-2H-pyrido[1,2-a]pyrazine-1,8-dione hydrochloride]
  IC50: < 10 nM

## O=c1ccn2ccn(CCCc3cccc(Cl)c3Cl)c(=O)c2c1O [Example 91, 2-[3-(2,3-dichlorophenyl)propyl]-9-hydroxy-2H-pyrido[1,2-a]pyrazine-1,8-dione hydrochloride]
  IC50: 10 to 100 nM

## CC(C)c1cn(Cc2ccc(F)c(Cl)c2)c(=O)c2c(O)c(=O)ccn12 [Example 92, 2-(3-chloro-4-fluorobenzyl)-9-hydroxy-4-isopropyl-2H-pyrido[1,2-a]pyrazine-1,8-dione hydrochloride]
  IC50: < 10 nM

## COC(=O)c1cn(Cc2cccc(Cl)c2)c(=O)c2c(O)c(=O)ccn12 [Example 93, methyl 2-(3-chlorobenzyl)-9-hydroxy-1,8-dioxo-1,8-dihydro-2H-pyrido[1,2-a]pyrazine-4-carboxylate]
  IC50: 10 to 100 nM
